What was measured:
[1] = biological target: T1, Carboxylic ester hydrolase (Equus caballus, UniProt Q9N1N9); assay: (§1) Tested for kinetic data for the horse serum Butyrylcholinesterase-Catalyzed Hydrolysis of Butyrylthiocholine; 10e-3/M. sec; conditions: read-out: kon (M-1-s-1)
[2] = biological target: T1, Carboxylic ester hydrolase; assay: ChEBML_41403; conditions: read-out: kon (M-1-s-1); from the text: as §1

T1 sequence (Q9N1N9 whole entry): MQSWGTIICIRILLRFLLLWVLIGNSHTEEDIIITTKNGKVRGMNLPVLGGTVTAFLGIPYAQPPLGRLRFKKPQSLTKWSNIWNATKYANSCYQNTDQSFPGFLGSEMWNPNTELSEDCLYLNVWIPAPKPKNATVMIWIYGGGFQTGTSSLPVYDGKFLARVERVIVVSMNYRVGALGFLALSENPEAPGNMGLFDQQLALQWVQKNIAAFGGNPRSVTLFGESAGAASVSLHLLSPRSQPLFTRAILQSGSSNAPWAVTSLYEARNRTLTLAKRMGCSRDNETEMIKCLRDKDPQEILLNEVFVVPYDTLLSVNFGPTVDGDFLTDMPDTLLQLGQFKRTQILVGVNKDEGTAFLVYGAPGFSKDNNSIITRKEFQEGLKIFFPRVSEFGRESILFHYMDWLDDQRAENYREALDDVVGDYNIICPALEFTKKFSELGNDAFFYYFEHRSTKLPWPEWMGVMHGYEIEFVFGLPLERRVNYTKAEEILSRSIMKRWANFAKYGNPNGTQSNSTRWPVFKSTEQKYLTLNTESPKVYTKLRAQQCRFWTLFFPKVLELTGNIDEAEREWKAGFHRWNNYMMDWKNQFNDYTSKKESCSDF

SMILES | kon [1] | kon [2]
CCCCNC(=O)OC1C2CC3CC(C2)CC1C3 (centres undefined) | 1800 M⁻¹ s⁻¹ | 
CCCCNC(=O)OC1C[C@H]2CCC1C2 (stereo partly drawn) [Butyl-carbamic acid (S)-bicyclo[2.2.1]hept-2-yl ester] | 110000 M⁻¹ s⁻¹ | 2200 M⁻¹ s⁻¹
CCCCNC(=O)OC12CC3CC(CC(C3)C1)C2 [Butyl-carbamic acid adamantan-1-yl ester] | 1900 M⁻¹ s⁻¹ | 

Reference: BindingDB's records for doi:10.1016/s0960-894x(98)00484-3 (National Chung-Hsing University, 1999)
